Where “and” joins values, the source holds several entries; their conditions need not be identical. Identical values can stand only once.
Columns and labels:
[1] = system: Plasmodium falciparum strain 3D7 whole parasites; parameters: method as in PMID 32808790; details: in vitro, read-out: IC50 against Plasmodium falciparum strain 3D7; cited from earlier work
[2] = Quantification of compounds in mice plasma by LC-MS-MS and PK parameters after i.v. injection; format: in vivo; details: mouse, in vivo, iv, 25 mg/kg
Description: (§1) Three Balb/C mice (6–8 weeks old) were intravenously injected with 25 mg/kg of strasseriolide D dissolved in 200 µL of vehicle (0.5%HPMC, 0.5% Tween 80 and 0.5% Benzyl alcohol in water). Blood samples were collected by pricking the […] on the leg of each mouse at time points 1.5 (T 1.5 h), 5 (T 5 h) and 24 h (T 24 h). From the harvested blood, 50 µL plasma were prepared for all the samples and stored at -80 °C until needed. A previously developed LC–MS–MS method (see supporting information) was used to determine the plasma concentration of strasseriolide D as described below.
Ten millimolar (10 mM) DMSO stocks of strasseriolide D (the test compound) and strasseriolide A (used as internal standard,) were prepared. From the strasseriolide D stock, a 59.7 µM (27,000 ppb) working concentration was made in DMSO and an aliquot of this was serially diluted (½) in reconstitution solution (1:1 of acetonitrile: H2O with 0.1% formic acid) to create a six-point calibration curve in triplicate. Three different quality control (QC) concentrations of strasseriolide D at 59.7, 0.74, and 0.25 µM (i.e. 27,000 ppb, 333 ppb and 111 ppb) were also prepared in duplicate. From the strasseriolide A (internal standard) stock, a 6.2 µM (2700 ppb) working concentration was prepared in DMSO.
Blank mouse plasma (prepared from non-injected mouse) was retrieved from the freezer (− 80 °C) and kept on ice to thaw. The sample was vortexed adequately and 15 µL aliquots transferred into 0.7 mL Eppendorf tubes after which 35 µL of Milli-Q water were added and vortexed. Triplicate sets of the diluted plasma were then respectively spiked with 2 uL of each concentration of the calibration curves of strasseriolide D. Another triplicate set of the diluted plasma was spiked with 2 µL of each concentration of the standard QC solutions. All the above samples were also spiked with 2 µL of strasseriolide A (the internal standard)). To serve as blank samples, a fresh triplicate set of diluted plasma were spiked with 4 µL of DMSO. Non-matrix samples were also prepared by spiking 100 µL aliquots of reconstitution solution with 2 µL of the standard QC solutions and 2 µL of internal standard.
Fifteen microlitres (15 µL) plasma from the various time points of the strasseriolide D-injected mice, were respectively transferred into 0.7 mL Eppendorf tubes. To each sample, 37 µL of Milli-Q water were added, vortexed and spiked with 2 µL of strasseriolide A (internal standard). Two hundred microlitres (200 µL) of ice-cold acetonitrile were added to all of the matrix (plasma-containing) samples and centrifuged at 13,300 rpm for 15 min at 4 °C. Subsequently, 180 µL aliquots were carefully transferred (without disturbing the protein precipitate) from each tube into clean HPLC vials and evaporated to dryness in an EZ2 Genevac at room temperature. The dried samples were then reconstituted in 40 µL of reconstitution solution by vortexing. The samples were placed in an auto-sampler drawer for LC–MS–MS analysis and quantification of strasseriolide D (the test compound) in mice plasma.
(§2) Similar sample preparation and LC–MS–MS analysis were respectively performed for mice intravenously injected with strasseriolides A and C as test compounds and mice blood samples collected at 30 min (T 30 M), 2 h (T 2 h), 6 h (T 6 h) and 24 h (T 24 h). […] For strasseriolides A, B and C as test compounds; strasseriolides C, D and B were respectively used as internal standards. After LC–MS–MS analysis, the plasma concentration of compound vs. time data was determined for each strasseriolide.
116 Table S2. QC table used to calculate the precision and accuracy of the method.
Compound Expected No. Experimental STD % %
conc. in values mean conc. deviation CV Accuracy
118 (5) The mean recovery rate for the test compound (strasseriolide B) – this was calculated
119 to be 29 % by comparing the plasma QC peak area ratios at the established retention time […]

[3] = system: mice; assay: In vivo toxicity in mice after i.v. injection; details: mouse, in vivo, iv, 25 mg/kg
Description: as §1, §2
Animals were observed individually at 15, 30 and 60 min after dosing and periodically during the first 24 h for any clinical signs of toxicity or mortality. The toxicity evaluation was carried out by observing behaviour parameters, including the Grimace scale parameters. The mice were sacrificed, and the main organs were examined by visual inspection during autopsy.

[4] = Metabolic stability assay in human liver microsomes; format: in vitro ADME; details: for half-life: pH 7.4, 1 mg/mL protein; for Clearance Category: ranked by CLint
Description: Pretreatment of the 96-well ABgen-0765 reaction plates was the same as previously described above. Two microlitres (2 µL) of compounds (previously dissolved in DMSO) were pre-incubated with 98 µL of cofactor/buffer solution (0.1 M phosphate buffer of pH 7.4, 100 mM K3PO4, 3.3 mM MgCl2, 3.3 mM G6P, 1.3 mM NADPH, and 0.4 u/mL G6PDH) at 37 °C for 10 min. The reactions were then initiated by the addition of 100 µL of HLM solution (at final protein concentration of 1 mg/mL), after which they were stopped at pre-determined incubation times of 0, 10, 15, 30, 45 and 60 min by adding 90 µL acetonitrile containing internal LC–MS–MS standards and shaking at 180 Hz. The samples were centrifuged to sediment the protein precipitates and the supernatants were analysed by LC–MS–MS as previously described above. The integration of each analyte (the […]) and internal standard peak area was performed by the Analyst® software version 1.5.2 and used to calculate the percentage of remaining compound at each incubation time. The natural logarithm of the percentage of the remaining parent compound was plotted against the incubation time and used to calculate the half-life by the following equation:
Half-life (T ½ min) = 0.693/k, where k is the slope of a plot of the natural log of the percentage parent compound remaining vs. time.
The intrinsic clearance (CLint) was determined by the equation: CLint
=Ln2/t1/2min∗volumeincubationmL/microsomalproteinmg∗45MPPGL1500ghumanliver/70kghumanbodyweightj
Units for CLint were expressed as mL/min/mg microsomal protein and MPPGL = mg microsomal protein per gram liver.

[5] = Balb/C, Calc. Conc. in plasma, individual mice
[6] = Balb/C, T1/2 (apparent terminal elimination half-life)

| SMILES | IC50 [1] [nM] | AUC 0-t/0-inf_obs ([2]; Balb/C) | AUC(0-inf) ([2]; Balb/C) | C0 ([2]; Balb/C) | Clast_obs/Cmax ([2]; Balb/C) | Cmax ([2]; Balb/C) | MRT ([2]; Balb/C) [h] | MRT inf ([2]; Balb/C) [h] | Tmax ([2]; Balb/C) [h] | Vss_obs ([2]; Balb/C) | Vz_obs (plasma distribution volume) ([2]; Balb/C) [L/kg] | k el ([2]; Balb/C) [s⁻¹] | AUC(0-t) ([2]; Balb/C, AUC 0-t) | AUC(0-t) ([2]; Balb/C, AUC0−t) [µM·h] | concentration at 24 h ([2]; Balb/C, Ave. Conc. in plasma) [nM] | concentration at 24 h [2, 5] | concentration at 24 h ([2]; Balb/C, Plasma Conc. @T24 h) [nM] | half-life [2, 6] [h] | half-life ([2]; Balb/C, t1/2) [h] | Cl_obs [2] | further results |
| --- | --- | --- | --- | --- | --- | --- | --- | --- | --- | --- | --- | --- | --- | --- | --- | --- | --- | --- | --- | --- | --- |
| C/C1=C\[C@H](C)C(=O)C[C@@H](O)/C(C)=C/[C@H](C)C[C@@H](C)CC[C@@H]([C@@H](C)C(=O)O)OC(=O)[C@@H](C)C1 [Strasseriolide C, strasseriolide C] | 123 | 0.9595 | 359 ng·h/mL and 0.798 µM·h | 203 ng/mL and 452 nM | 0.01432 | 111 ng/mL and 246 nM | 4.7 | 4.71 | 0.5 | 0.3281 (mg/kg)/(ng/ml) | 636.8 | 3.04e-05 | 345 ng·h/mL and 0.766 µM·h | 0.766 | 3.54 | 2.04 ng/mL and 4.53 nM | 3.5 ± 0.9 | 6.3 | 6.34 | 0.06959 (mg/kg)/(ng/ml)/h | concentration at 0.5 h ([2]; Balb/C, Ave. Conc. in plasma): 246 nM; concentration at 2 h ([2]; Balb/C, Ave. Conc. in plasma): 40 nM; concentration at 6 h ([2]; Balb/C, Ave. Conc. in plasma): 24 nM; concentration at 0.5 h [2, 5]: 122 ng/mL and 271 nM; concentration at 2 h [2, 5]: 20.7 ng/mL and 46 nM; concentration at 6 h [2, 5]: 11.4 ng/mL and 23.1 nM; in vivo toxicity / mortality in mice ([3]; Balb/C, 24 h): survived until 24 h post-i.v. injection; in vivo toxicity / mortality in mice [3]: non-toxic; half-life [4]: 0.265 ± 0.0192 h; Clearance Category [4]: Medium |
| C/C1=C\[C@H](C)[C@@H](O)C[C@@H](O)/C(C)=C/[C@H](C)C[C@@H](C)CC[C@@H]([C@@H](C)C(=O)O)OC(=O)[C@@H](C)C1 [Strasseriolide D, strasseriolide D] | 128 | 0.8996 | 5050 ng·h/mL and 11.2 µM·h | 929 ng/mL and 2.06 µM | 0.08582 | 564 ng/mL and 1.25 µM | 8 | 8.02 | 1.5 | 0.03969 (mg/kg)/(ng/ml) | 51.9 | 2.65e-05 | 10.1 µM·h and 4550 ng·h/mL | 10.1 | 107 | 49.2 ng/mL and 109 nM | 107 ± 5 | 7.3 | 7.27 | 0.004946 (mg/kg)/(ng/ml)/h | concentration at 1.5 h ([2]; Balb/C, Ave. Conc. in plasma): 1250 nM; concentration at 5 h ([2]; Balb/C, Ave. Conc. in plasma): 389 nM; concentration at 5 h [2, 5]: 168 ng/mL and 431 nM; in vivo toxicity / mortality in mice ([3]; Balb/C, 24 h): survived until 24 h post-i.v. injection; in vivo toxicity / mortality in mice [3]: non-toxic; half-life [4]: > 1 h; Clearance Category [4]: Low |

Reference: paper PMC8647499, “Preclinical evaluation of strasseriolides A–D, potent antiplasmodial macrolides isolated from Strasseria geniculata CF-247,251” (Malaria Journal, 2021)
